Assay type in all cases: cell-based
One experiment addresses T1, MCHR1 F161(2.53)A (Homo sapiens, UniProt Q99705, F92A).
T1 construct: expressed in transfected cells; host or cells: HEK293
Description: GloSensor cAMP assay, MCHR1 F161A. As to conditions: HEK293, mean ± S.E.M., n = 3 in triplicate. An excerpt:
(§1) The gene sequences encoding human MCHR1 (residues 70‒405) and MCHR2 (residues 1‒331, with L256^6.40Y mutation) were subcloned into pFastBac vector (Invitrogen) with an N-terminal haemagglutinin signal peptide (HA) and a thermostabilized BRIL fusion, followed by a C-terminal 15-amino acid linker, a LgBiT subunit and two MBPs to facilitate receptor expression and stability. The Gαi construct was designed with dominant-negative mutations S47N, G203A, A326S, and E245A to decrease the affinity of nucleotide-binding and stable Gαβγ complex. The mini-Gαq construct was designed with the C-terminal α-helix (αH5) of Gαq, which is critical for G protein coupling selectivity. The core of the construct, known as the Ras domain, is derived from Gαs. This design choice was made to enable the binding of the nanobody Nb35, which stabilizes the complex for cryo-EM analysis. […] Rat Gβ1 was constructed with a N-terminal 16× His-tag for purification and a C-terminal HiBiT to form a NanoBiT with LgBiT. […] The wild-type and mutants of MCHR1 and MCHR2 were constructed into the pcDNA6.0 vector […] for functional assays.
(§2) GloSensor cAMP assay was used to detect the downstream Gαi signal of MCHR1 using GloSensor cAMP Reagent (Promega).
On the technique in general: cAMP levels reflect the balance of adenylyl cyclase and phosphodiesterase activity.

Another experiment has as its target T2, MCHR1 D192(3.32)A (Homo sapiens, UniProt Q99705, D123A).
T2 construct: expressed in transfected cells; host or cells: HEK293
Description: GloSensor cAMP assay, MCHR1 D192A. To be noted: HEK293, mean ± S.E.M., n = 3 in triplicate.
Text: as §1, §2

A further experiment deals with T3, MCHR1 Y362(7.35)A (Homo sapiens, UniProt Q99705, Y293A).
T3 construct: expressed in transfected cells; host or cells: HEK293
Description: GloSensor cAMP assay, MCHR1 Y362A. To be noted: HEK293, mean ± S.E.M., n = 3 in triplicate.
Text: as §1, §2

For the next experiment, the target named is T4, MCHR2 WT (Homo sapiens, UniProt Q969V1).
T4 construct: expressed in transfected cells; host or cells: AD293
Put plainly: IP-One IP1 accumulation assay, MCHR2 WT (Gαq). As to conditions: AD293, IP-One HTRF, mean ± S.E.M. The source says:
(§3) The gene sequences encoding human MCHR1 (residues 70‒405) and MCHR2 (residues 1‒331, with L256^6.40Y mutation) were subcloned into pFastBac vector (Invitrogen) with an N-terminal haemagglutinin signal peptide (HA) and a thermostabilized BRIL fusion, followed by a C-terminal 15-amino acid linker, a LgBiT subunit and two MBPs to facilitate receptor expression and stability. The Gαi construct was designed with dominant-negative mutations S47N, G203A, A326S, and E245A to decrease the affinity of nucleotide-binding and stable Gαβγ complex. The mini-Gαq construct was designed with the C-terminal α-helix (αH5) of Gαq, which is critical for G protein coupling selectivity. The core of the construct, known as the Ras domain, is derived from Gαs. This design choice was made to enable the binding of the nanobody Nb35, which stabilizes the complex for cryo-EM analysis. […]
(§4) IP1 accumulation assay was applied for the detection of the downstream Gαq signal of MCHR2 using the IP-One HTRF kit (Cisbio). […] Before measurement, the samples were incubated at RT for 30 min and measured with EnVision multi-plate reader (PerkinElmer).
(§5) Concentration–response curves were evaluated with a three-parameter logistic equation. The significance was determined with one-way ANOVA with Tukey’s test, and P < 0.05 vs wild type was considered statistically significant.
On the technique in general: TR-FRET usually uses a lanthanide donor and a delayed reading to cut background.

Another experiment deals with T5, MCHR2 Q92(2.63)A (Homo sapiens, UniProt Q969V1, Q92A).
T5 construct: expressed in transfected cells; host or cells: AD293
Put plainly: IP-One IP1 accumulation assay, MCHR2 Q92A. To be noted: n = 3 in triplicate.
Text: as §3, §4, §5

The next experiment addresses T6, MCHR2 W93(2.64)A (Homo sapiens, UniProt Q969V1, W93A).
T6 construct: expressed in transfected cells; host or cells: AD293
Description: IP-One IP1 accumulation assay, MCHR2 W93A. As to conditions: n = 3 in triplicate.
Text: as §3, §4, §5

A further experiment addresses T7, MCHR2 Q117(3.36)A (Homo sapiens, UniProt Q969V1, Q117A).
T7 construct: expressed in transfected cells; host or cells: AD293
Put plainly: IP-One IP1 accumulation assay, MCHR2 Q117A. As to conditions: n = 3 in triplicate.
Text: as §3, §4, §5

The target in another experiment is T8, MCHR2 F177(ECL2)A (Homo sapiens, UniProt Q969V1, F177A).
T8 construct: expressed in transfected cells; host or cells: AD293
Put plainly: IP-One IP1 accumulation assay, MCHR2 F177A. As to conditions: n = 3 in triplicate.
Text: as §3, §4, §5

The target of a further experiment is T9, MCHR2 D179(ECL2)A (Homo sapiens, UniProt Q969V1, D179A).
T9 construct: expressed in transfected cells; host or cells: AD293
Put plainly: IP-One IP1 accumulation assay, MCHR2 D179A. To be noted: n = 3 in triplicate.
Text: as §3, §4, §5

For the next experiment, the target named is T10, MCHR2 S183(ECL2)A (Homo sapiens, UniProt Q969V1, S183A).
T10 construct: expressed in transfected cells; host or cells: AD293
Description: IP-One IP1 accumulation assay, MCHR2 S183A. As to conditions: AD293, mean ± S.E.M., n = 3 in triplicate.
Text: as §3, §4, §5

The target in a further experiment is T11, MCHR2 A185(45.51)F (Homo sapiens, UniProt Q969V1, A185F).
T11 construct: expressed in transfected cells; host or cells: AD293
Description: IP-One IP1 accumulation assay, MCHR2 A185F. As to conditions: n = 3 in triplicate.
Text: as §3, §4, §5

Another experiment deals with T12, MCHR2 T198(5.39)A (Homo sapiens, UniProt Q969V1, T198A).
T12 construct: expressed in transfected cells; host or cells: AD293
Put plainly: IP-One IP1 accumulation assay, MCHR2 T198A. To be noted: n = 3 in triplicate.
Text: as §3, §4, §5

The next experiment concerns the target T13, MCHR2 P280(ECL3)A (Homo sapiens, UniProt Q969V1, P280A).
T13 construct: expressed in transfected cells; host or cells: AD293
Put plainly: IP-One IP1 accumulation assay, MCHR2 P280A. To be noted: n = 3 in triplicate.
Text: as §3, §4, §5

[1] abbreviates: AD293, IP-One HTRF, 37 °C 1 h, mean ± S.E.M., P < 0.0001 vs WT.

T5 sequence (Q969V1 whole entry Q92A): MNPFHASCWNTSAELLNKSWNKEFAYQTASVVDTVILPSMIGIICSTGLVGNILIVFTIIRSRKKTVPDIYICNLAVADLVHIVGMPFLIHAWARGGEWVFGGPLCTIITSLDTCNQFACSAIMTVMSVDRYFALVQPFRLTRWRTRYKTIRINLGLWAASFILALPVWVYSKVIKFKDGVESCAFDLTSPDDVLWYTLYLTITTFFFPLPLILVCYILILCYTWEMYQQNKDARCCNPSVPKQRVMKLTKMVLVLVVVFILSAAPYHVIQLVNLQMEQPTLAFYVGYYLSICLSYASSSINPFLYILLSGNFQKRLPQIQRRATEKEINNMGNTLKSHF
T13 sequence (Q969V1 whole entry P280A): as the sequence (Q969V1 whole entry Q92A) above, with A92Q, P280A counted along it
T12 sequence (Q969V1 whole entry T198A): as the sequence (Q969V1 whole entry Q92A) above, with A92Q, T198A counted along it
T9 sequence (Q969V1 whole entry D179A): as the sequence (Q969V1 whole entry Q92A) above, with A92Q, D179A counted along it
T8 sequence (Q969V1 whole entry F177A): as the sequence (Q969V1 whole entry Q92A) above, with A92Q, F177A counted along it
T11 sequence (Q969V1 whole entry A185F): as the sequence (Q969V1 whole entry Q92A) above, with A92Q, A185F counted along it
T7 sequence (Q969V1 whole entry Q117A): as the sequence (Q969V1 whole entry Q92A) above, with A92Q, Q117A counted along it
T4 sequence (Q969V1 whole entry): as the sequence (Q969V1 whole entry Q92A) above, with A92Q counted along it
T6 sequence (Q969V1 whole entry W93A): as the sequence (Q969V1 whole entry Q92A) above, with A92Q, W93A counted along it
T3 sequence (Q99705 whole entry Y293A): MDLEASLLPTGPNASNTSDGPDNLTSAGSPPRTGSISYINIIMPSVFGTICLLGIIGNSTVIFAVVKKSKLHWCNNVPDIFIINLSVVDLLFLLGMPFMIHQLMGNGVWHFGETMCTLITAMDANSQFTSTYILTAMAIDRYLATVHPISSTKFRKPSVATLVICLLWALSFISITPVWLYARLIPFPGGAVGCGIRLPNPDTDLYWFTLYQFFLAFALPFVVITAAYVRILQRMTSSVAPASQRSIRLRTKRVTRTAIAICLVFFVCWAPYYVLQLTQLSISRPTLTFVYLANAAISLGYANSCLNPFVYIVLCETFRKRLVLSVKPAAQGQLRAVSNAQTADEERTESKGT
T1 sequence (Q99705 whole entry F92A): as the sequence (Q99705 whole entry Y293A) above, with F92A, A293Y counted along it
T10 sequence (Q969V1 whole entry S183A): as the sequence (Q969V1 whole entry Q92A) above, with A92Q, S183A counted along it
T2 sequence (Q99705 whole entry D123A): as the sequence (Q99705 whole entry Y293A) above, with D123A, A293Y counted along it

In the case of `CSCC[C@@H]1NC(=O)[C@@H](NC(=O)[C@H](CCCNC(=N)N)NC(=O)[C@H](CC(C)C)NC(=O)[C@H](CCSC)NC(=O)[C@H](CC(=O)O)NC(=O)[C@H](Cc2ccccc2)NC(=O)[C@@H](N)CC(=O)O)CSSC[C@@H](C(=O)N[C@@H](Cc2c[nH]c3ccccc23)C(=O)N[C@@H](CCC(N)=O)C(=O)N[C@H](C(=O)O)C(C)C)NC(=O)[C@@H]2CCCN2C(=O)[C@H](CCCNC(=N)N)NC(=O)[C@H](Cc2ccc(O)cc2)NC(=O)[C@H](C(C)C)NC(=O)[C@H](CCCNC(=N)N)NC(=O)CNC(=O)[C@H](CC(C)C)NC1=O` [MCH, Melanin-concentrating hormone], the Emax (usually the size of the effect at its maximum, as opposed to the concentration needed) was found to be 124 ± 1% on MCHR1 F161(2.53)A; 40 ± 7% on MCHR1 D192(3.32)A; 95% at MCHR1 Y362(7.35)A; 100% at MCHR2 WT (normalized by WT receptor, n = 3 in triplicate); 25 ± 2% at MCHR2 Q92(2.63)A (AD293, mean ± S.E.M.); 91 ± 1% at MCHR2 W93(2.64)A (AD293, mean ± S.E.M.). In addition, the maximal effect (Emax) was 96 ± 2% on MCHR2 Q117(3.36)A (AD293, mean ± S.E.M.); 97 ± 2% on MCHR2 F177(ECL2)A (AD293, mean ± S.E.M.); 85% at MCHR2 D179(ECL2)A (AD293, mean ± S.E.M.); 95 ± 1% on MCHR2 S183(ECL2)A; 96 ± 1% on MCHR2 A185(45.51)F (AD293, mean ± S.E.M.); 93 ± 2% on MCHR2 T198(5.39)A (AD293, mean ± S.E.M.). This compound showed a maximal effect (Emax) on MCHR2 P280(ECL3)A (AD293, mean ± S.E.M.) of 90 ± 2%. In addition, the EC50 (commonly the concentration needed to bring the measured effect to its halfway point) at MCHR2 WT (37 °C 1 h, three independent experiments in triplicate) is 3.16 nM; at MCHR2 Q92(2.63)A (setting [1]) it was 9120 nM; at MCHR2 W93(2.64)A (setting [1]), 6030 nM; on MCHR2 Q117(3.36)A (AD293, IP-One HTRF, 37 °C 1 h, mean ± S.E.M., P 0.0352 vs WT), 10.7 nM; at MCHR2 F177(ECL2)A (setting [1]), 3980 nM; on MCHR2 D179(ECL2)A (setting [1]), 1290 nM. The concentration for a half-maximal effect (EC50) at MCHR2 A185(45.51)F (setting [1]) was 12600 nM; at MCHR2 T198(5.39)A (setting [1]), 69.2 nM; on MCHR2 P280(ECL3)A (setting [1]) it was 182 nM.

The values are drawn from PMC11074101 (Cell Discovery, 2024).
